Like-named read-outs stand apart in the source and are kept apart here.
Tests used:
[1] = Cytotoxicity assay in mammalian cells (MTT), fibroblasts, 72 h; type: cell-based; conditions: mouse, pH 7.2, 50 % inhibition of fibroblast growth, 72 h, MTT
Protocol: (§1) The antiproliferative activity was determined in promastigote forms of Leishmania amazonensis (WHOM/BR/75/JOSEFA strain) and epimastigote forms of Trypanosoma cruzi (Y strain). The promastigote forms of L. amazonensis were cultured in Warren medium (brain heart infusion, hemin, and folic acid; pH 7.4) supplemented with 10 % fetal bovine serum (FBS) at 25 °C. The epimastigote forms of T.cruzi were cultured in LIT medium (liver infusion tryptose; hemin, and folic acid; pH 7.4) supplemented with 10 % FBS at 28 °C. Cytotoxicity in mammalian cells was determined in fibroblast line (L929) and macrophages (J774 A1). Fibroblasts were cultured in DMEM medium (pH 7.2) supplemented with 10 % FBS at 37 °C in a 5 % CO2 atmosphere. Macrophages were cultured in RPMI‐1640 (pH 7.2) medium supplemented with 10 % FBS at 37 °C in a 5 % CO2 atmosphere.
(§2) Stock solutions of the compounds were prepared in DMSO and then diluted in the respective medium.
(§3) Fibroblast cell (2.5×10^5 cells.mL^−1) suspensions were prepared in DMEM medium supplemented with 10 % FBS and added to 96‐well plates. Then, the plates were incubated at 37 °C in a CO2 atmosphere for 24 h to obtain confluent cell growth. After incubation, cells were treated with different concentrations of compounds diluted in DMEM for 72 h or left untreated. Macrophage (5×10^5 cells.mL^−1) suspensions were prepared in RPMI‐1640 medium supplemented with 10 % FBS and added to 96‐well plates. Then, the plates were incubated at 37 °C in a CO2 atmosphere for 24 h to obtain confluent cell growth. After incubation, cells were treated with different concentrations of compounds diluted in RPMI‐1640 for 48 h or left untreated. After treatment, the medium was removed, and cells were incubated with MTT (2 mg.mL^−1) for 4 h. Then, DMSO was added for solubilization of the formazan and analyzed with a reading microplate reader (BIO‐TEK PowerWave XS spectrophotometer) at […].[20] The percentage of viable cells was calculated in relation to the untreated control group to determine the cytotoxic concentration in 50 % of the cells (CC50). The control groups of each experiment received the same experimental conditions as the treated groups (cell concentration used, temperature, CO2, and incubation time).

[2] = Cytotoxicity assay in mammalian cells (MTT), macrophages, 48 h; type: cell-based; conditions: mouse, pH 7.2, 50 % inhibition of macrophages growth, 48 h, MTT
Protocol: as §1, §2, §3

[3] = test system: epimastigote forms of Trypanosoma cruzi (Y strain); assay: Antiproliferative assay (XTT), epimastigote forms, 96 h; type: cell-based; conditions: for IC50: Trypanosoma cruzi, 96 h, read-out: T. cruzi IC50; for SIT-F, selectivity index (Fibroblast CC50/T. cruzi IC50): fibroblast vs epimastigote; for SIT-M, selectivity index (Macrophages CC50/T. cruzi IC50): macrophages vs epimastigote
Protocol: as §1, §2
(§4) Promastigote forms (1×10^6 parasites.mL^−1) were cultured in 96‐well plates in the presence and absence of different concentrations of compounds diluted in Warren medium supplemented with 10 % FBS and incubated for 72 h. The epimastigote forms (1×10^6 parasites.mL^−1) were cultured in 96‐well plates in the presence and absence of different concentrations of compounds diluted in LIT medium supplemented with 10 % FBS and incubated for 96 h. After treatment, the parasites were incubated with a solution of 2,3‐bis(2‐methoxy‐4‐nitro‐5‐sulfophenyl)‐2H‐tetrazolium‐5‐carboxanilide (XTT; 0.5 mg.mL^−1) and phenazine methanesulfonate activator (PMS; 0.06 mg.mL^−1) in PBS for 4 h. Then, the absorbance was read in a microplate reader (Bio Tek‐Power Wave XS) at 450 nm.[20] The percentage of viable parasites was calculated in relation to the control in order to determine the concentration that inhibits 50 % of the protozoa (IC50). The control groups of each experiment received the same experimental conditions as the treated groups (cell concentration used, temperature, and incubation time).

[4] = test system: promastigote forms of Leishmania amazonensis (WHOM/BR/75/JOSEFA strain); assay: Antiproliferative assay (XTT), promastigote forms, 72 h; type: cell-based; conditions: for IC50: Leishmania amazonensis, 72 h, read-out: L. amazonensis IC50; for SIL-F, selectivity index (Fibroblast CC50/L. amazonensis IC50): fibroblast vs promastigote; for SIL-M, selectivity index (Macrophages CC50/L. amazonensis IC50): macrophages vs promastigote
Protocol: as §1, §2, §4

melting point [°C]	IC50 ([3]; epimastigote form, XTT) [µM]	SMILES	CC50 at 72 h [1] [µM]	CC50 at 48 h [2] [µM]	IC50 [3] [µM]	SIT-F, selectivity index (Fibroblast CC50/T. cruzi IC50) [3]	SIT-M, selectivity index (Macrophages CC50/T. cruzi IC50) [3]	IC50 [4] [µM]	SIL-F, selectivity index (Fibroblast CC50/L. amazonensis IC50) [4]	SIL-M, selectivity index (Macrophages CC50/L. amazonensis IC50) [4]	CC50 at 72 h ([1]; L929 fibroblast cells) [µM]	CC50 at 48 h ([2]; J774 A1 macrophages) [µM]	IC50 ([4]; promastigote form, XTT) [µM]	Selectivity index (SI), overall ([4]; span over both cell lines (fibroblast, macrophages) and both parasites (L. amazonensis, T. cruzi))
171.1 to 173.6	65.3 ± 3.6	COc1ccc(NCc2c(C(=O)NN)noc2-c2ccc(F)cc2)cc1 [3 cc]	–	–	–	2.54	2.29	–	2.80	2.53	166 ± 9.6	150 ± 4.4	59.2 ± 5.7	–
157 to 158.8	49.5 ± 2.9	COc1ccc(NCc2c(C(=O)NN)noc2-c2ccc(Cl)cc2)cc1 [3 dc]	–	–	–	6.25	4.24	–	5.55	3.76	310 ± 8.9	210 ± 3.5	55.8 ± 3.9	–
181.7 to 185.5	78.6 ± 7.4	COc1ccc(NCc2c(C(=O)N/N=C/c3ccccc3)noc2-c2ccc(F)cc2)cc1 [4 cc]	–	–	–	3.91	3.81	–	5.46	5.32	308 ± 9.8	300 ± 8.9	56.3 ± 8.5	–
177.6 to 179	147 ± 10.7	O=C(N/N=C/c1ccccc1)c1noc(-c2ccc([N+](=O)[O-])cc2)c1CNc1ccc(Cl)cc1 [4 ab]	–	–	–	2.71	1.96	–	3.01	2.18	398 ± 6.9	287.4 ± 2.3	133 ± 8.8	–
174 to 175	22.8 ± 1.7	NNC(=O)c1noc(-c2ccc(F)cc2)c1CNc1ccccc1 [3 ca]	–	–	–	10.25	7.63	–	–	8.57	198 ± 5	174 ± 8.1	20.3 ± 0.9	–
197.6 to 199.6	26.7 ± 3.9	COc1ccc(NCc2c(C(=O)N/N=C/c3ccccc3)noc2-c2ccccc2)cc1 [4 bc]	–	–	–	7.85	6.61	–	9.75	8.20	210 ± 4.7	176 ± 6.6	21.5 ± 0.8	–
210.4 to 212.4	17.9 ± 0.7	COc1ccc(NCc2c(C(=O)N/N=C/c3ccccn3)noc2-c2ccc(Cl)cc2)cc1 [5 dc]	–	–	–	6.00	5.51	–	6.17	5.67	107 ± 2.2	98.6 ± 2.3	17.4 ± 2	–
176.3 to 177.1	65.9 ± 6.1	COc1ccc(NCc2c(C(=O)N/N=C/c3ccccc3)noc2-c2ccc(Cl)cc2)cc1 [4 dc]	–	–	–	4.49	3.71	–	5.45	4.50	296 ± 9	245 ± 7.9	54.3 ± 2.7	–
211.1 to 213.9	19 ± 0.7	O=C(N/N=C/c1ccc(-c2cccs2)s1)c1noc(-c2ccccc2)c1CNc1ccc(Cl)cc1 [6 bb]	–	–	–	11.92	9.90	–	12.31	10.22	226 ± 8.7	188 ± 7.4	18.4 ± 1.2	–
194.8 to 195.6	33.6 ± 4.4	O=C(N/N=C/c1ccccn1)c1noc(-c2ccccc2)c1CNc1ccccc1 [5 ba]	–	–	–	9.80	9.02	–	9.20	8.47	330 ± 5.6	303 ± 9.5	35.8 ± 4.8	–
202.8 to 205.6	27.9 ± 2.3	NNC(=O)c1noc(-c2ccc(Cl)cc2)c1CNc1ccccc1 [3 da]	–	–	–	10.93	9.20	–	13.21	11.12	305 ± 11.4	257 ± 6.8	23.1 ± 1.5	–
165.5 to 167	18.1 ± 2.4	COc1ccc(NCc2c(C(=O)N/N=C/c3ccc(-c4cccs4)s3)noc2-c2ccccc2)cc1 [6 bc]	–	–	–	10.9	9.42	–	11.5	9.91	198 ± 5.9	170 ± 3.3	17.2 ± 3.1	–
232.5 to 233.9	38.4 ± 2.1	O=C(N/N=C/c1ccc(-c2cccs2)s1)c1noc(-c2ccc([N+](=O)[O-])cc2)c1CNc1ccccc1 [6 aa, 3‐[(2E)‐N'‐(2,2'‐bithienyl‐5‐methylene)hydrazinecarbonyl]‐4‐(phenyl)aminomethyl‐5‐(4‐nitrophenyl)isoxazole]	–	–	–	7.48	5.46	–	8.74	6.37	287 ± 7.3	210 ± 9.6	32.9 ± 0.9	–
144.2 to 146.8	82.9 ± 3.4	COc1ccc(NCc2c(C(=O)NN)noc2-c2ccc([N+](=O)[O-])cc2)cc1 [3 ac]	–	–	–	6.02	4.86	–	6.51	5.25	499 ± 2.7	403 ± 11.5	76.7 ± 0.6	–
132.2 to 135.4	15 ± 0.8	COc1ccc(NCc2c(C(=O)NN)noc2-c2ccccc2)cc1 [3 bc]	–	–	–	12.69	12.38	–	15.35	14.97	190 ± 3.7	186 ± 6.1	12.4 ± 1.7	greater than 14

SMILES	melting point [°C]	IC50 ([3]; epimastigote form, XTT) [µM]	CC50 at 72 h [1] [µM]	CC50 at 48 h [2] [µM]	IC50 [3] [µM]	SIT-F, selectivity index (Fibroblast CC50/T. cruzi IC50) [3]	SIT-M, selectivity index (Macrophages CC50/T. cruzi IC50) [3]	IC50 [4] [µM]	SIL-F, selectivity index (Fibroblast CC50/L. amazonensis IC50) [4]	SIL-M, selectivity index (Macrophages CC50/L. amazonensis IC50) [4]	CC50 at 72 h ([1]; L929 fibroblast cells) [µM]	CC50 at 48 h ([2]; J774 A1 macrophages) [µM]	IC50 ([4]; promastigote form, XTT) [µM]	Selectivity index (SI), overall ([4]; span over both cell lines (fibroblast, macrophages) and both parasites (L. amazonensis, T. cruzi))
NNC(=O)c1noc(-c2ccccc2)c1CNc1ccc(Cl)cc1 [3 bb]	190.6 to 191.6	–	288 ± 9.9	231 ± 8.1	39 ± 7.1	7.38	5.93	35.7 ± 6	8.07	6.48	–	–	–	–
